The results in this text go back to patent US8754079B2, “Cycloalkyl containing thienopyrimidines for pharmaceutical compositions” (Boehringer Ingelheim International GmbH, priority 2010, dated 2014).

In this assay the target is T1, MNK2 (Homo sapiens, UniProt Q9HBH9).
T1 construct: the open reading frames of human Mnk1 and Mnk2a were amplified from cDNA; made in house; host or cells: E. coli BL21
The assay can be described thus: Mnk2a in vitro kinase assay (indirect fluorescence polarization). The settings on record: pre-activated GST-Mnk2a 2.5 nM, 20 μM ATP, 30 μM substrate peptide. The class given is biochemical. The essentials: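 Human GST-Mnk2a was expressed in E. coli and activated in vitro with 150 nM pre-activated ERK2 and 50 μM ATP in HEPES pH 7.4/MgCl2 buffer (45 min, 30 °C). Activity on an eIF4E Ser209-derived 12mer peptide was read by competitive fluorescence polarization with a phospho-specific antibody.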
(In general: Fluorescence polarisation rises when a labelled molecule tumbles more slowly, as on binding a larger partner.)

pIC50: −log10 of the molar value. Counter-ions that a name gives are not always drawn.

T1 sequence (Q9HBH9 whole entry): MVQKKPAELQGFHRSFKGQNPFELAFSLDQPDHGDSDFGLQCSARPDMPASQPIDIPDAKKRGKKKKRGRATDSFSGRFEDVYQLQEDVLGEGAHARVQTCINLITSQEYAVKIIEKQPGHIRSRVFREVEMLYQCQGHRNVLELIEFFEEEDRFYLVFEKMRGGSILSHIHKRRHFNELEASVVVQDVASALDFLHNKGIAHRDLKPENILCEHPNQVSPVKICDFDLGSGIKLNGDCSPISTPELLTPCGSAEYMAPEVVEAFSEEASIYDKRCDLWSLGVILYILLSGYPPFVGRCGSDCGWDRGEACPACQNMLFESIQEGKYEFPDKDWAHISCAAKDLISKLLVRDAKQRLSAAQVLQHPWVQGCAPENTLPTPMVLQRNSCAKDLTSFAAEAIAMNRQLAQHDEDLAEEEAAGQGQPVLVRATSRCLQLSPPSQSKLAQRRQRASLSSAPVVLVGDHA

As for `Cc1c(C(=O)NCCO)sc2ncnc(Nc3ccc(F)cc3OC3CCC(O)C3)c12` (stereo not shown) [Example 227, 4-(4-Fluoro-2-(3-hydroxycyclopentyloxy)phenylamino)-N-(2-hydroxyethyl)-5-methylthieno[2,3-d]pyrimidine-6-carboxamide], the negative logarithm of the IC50 (pIC50) was 7.92.

`Cc1c(C(N)=O)sc2ncnc(Nc3ccc(F)cc3O[C@H]3CC[C@H](NC(=O)OC(C)(C)C)C3)c12` [Example 228, {(1S,3S)-3-[2-(6-Carbamoyl-5-methyl-thieno[2,3-d]pyrimidin-4-ylamino)-5-fluoro-phenoxy]-cyclopentyl}-carbamic acid tert-butyl ester]: the negative-log IC50 (pIC50) was 5.94. Against the preceding compound, the pIC50 is 1.98 log units lower.

The compound `Cc1c(C(N)=O)sc2ncnc(Nc3ccc(F)cc3O[C@H]3CC[C@H](N)C3)c12` [Example 229, 4-[2-((1S,3S)-3-Amino-cyclopentyloxy)-4-fluoro-phenylamino]-5-methyl-thieno[2,3-d]pyrimidine-6-carboxylic acid amide trifluoroacetate] gave a negative logarithm of the IC50 (pIC50) of 8.15. Compared with the last compound, the pIC50 is 2.21 log units higher.

As for `CC(=O)N[C@H]1CC[C@H](Oc2cc(F)ccc2Nc2ncnc3sc(C(N)=O)c(C)c23)C1` [Example 230, 4-[2-((1S,3S)-3-Acetylamino-cyclopentyloxy)-4-fluoro-phenylamino]-5-methyl-thieno[2,3-d]pyrimidine-6-carboxylic acid amide], the negative logarithm of the IC50 (pIC50) was 8.40.

`CC(=O)N[C@H]1CC[C@H](Oc2cc(F)ccc2Nc2ncnc3sc(C(=O)NCCO)c(C)c23)C1` [Example 231, 4-[2-((1S,3S)-3-Acetylamino-cyclopentyloxy)-4-fluoro-phenylamino]-5-methyl-thieno[2,3-d]pyrimidine-6-carboxylic acid (2-hydroxy-ethyl)-amide] gave a negative-log IC50 (pIC50) of 7.85.

In the case of `CC(=O)N[C@H]1CC[C@H](Oc2cc(F)ccc2Nc2ncnc3sc(C(=O)N[C@@H]4C[C@H]4NC(=O)OC(C)(C)C)c(C)c23)C1` [Example 232], the negative logarithm of the IC50 (pIC50) is 8.22. This pIC50 is 0.37 log units higher than that of the compound before.

`CC(=O)N[C@H]1CC[C@H](Oc2cc(F)ccc2Nc2ncnc3sc(C(=O)NCC#CCN(C)C)c(C)c23)C1` [Example 233] gave a negative-log IC50 (pIC50) of 7.72.

Compound `CC(=O)N[C@H]1CC[C@H](Oc2cc(F)ccc2Nc2ncnc3sc(C(=O)NC4CCN(C)CC4)c(C)c23)C1` [Example 234] showed a pIC50 of 7.49.

Turning to `CNC(=O)c1sc2ncnc(Nc3ccc(F)cc3O[C@H]3CC[C@H](NC(C)=O)C3)c2c1C` [Example 235], the pIC50 was 8.22.

Take `CONC(=O)c1sc2ncnc(Nc3ccc(F)cc3O[C@H]3CC[C@H](NC(C)=O)C3)c2c1C` [Example 236]: the negative-log IC50 (pIC50) is 7.80.

Regarding `CC(=O)N[C@H]1CC[C@H](Oc2cc(F)ccc2Nc2ncnc3sc(C(=O)NCCCN(C)C)c(C)c23)C1` [Example 237], the pIC50 was 7.60.

On to `CC(=O)N[C@H]1CC[C@H](Oc2cc(F)ccc2Nc2ncnc3sc(C(=O)N[C@@H]4C[C@H]4N)c(C)c23)C1` [Example 238], for which the negative logarithm of the IC50 (pIC50) was 7.51. This pIC50 and that of the compound before are within 0.2 log units of each other.

`CC(=O)N[C@H]1CC[C@H](Oc2cc(F)ccc2Nc2ncnc3sc(C(=O)NCCCN4CCCC4)c(C)c23)C1` [Example 239] gave a negative logarithm of the IC50 (pIC50) of 7.82.

Turning to `CC(=O)N(C)[C@H]1CC[C@H](Oc2cc(F)ccc2Nc2ncnc3sc(C(N)=O)c(C)c23)C1` [Example 240, 4-{2-[(1S,3S)-3-(Acetyl-methyl-amino)-cyclopentyloxy]-4-fluoro-phenylamino}-5-methyl-thieno[2,3-d]pyrimidine-6-carboxylic acid amide], the pIC50 is 7.89.

`CC(=O)N[C@H]1C[C@H](Oc2cc(F)ccc2Nc2ncnc3sc(C(=O)NCC#N)c(C)c23)C1` [Example 241, 4-[2-(trans-3-Acetylamino-cyclobutoxy)-4-fluoro-phenylamino]-5-methyl-thieno[2,3-d]pyrimidine-6-carboxylic acid cyanomethyl-amide] gave a negative-log IC50 (pIC50) of 7.31.

With `Cc1c(C(N)=O)sc2ncnc(Nc3ccc(F)cc3OC3CCC3)c12` [Example 243, 4-(2-Cyclobutoxy-4-fluoro-phenylamino)-5-methyl-thieno[2,3-d]pyrimidine-6-carboxylic acid amide], the negative-log IC50 (pIC50) was 8.05.

For orientation: pIC50 means the negative decadic logarithm of the IC50, by convention in mol/L.
